Reference: patent publication US11987795B2, “Methods of modulating SLC7A11 pre-mRNA transcripts for diseases and conditions associated with expression of SLC7A11” (The Broad Institute, Inc., priority 2020, dated 2024)
Read-outs that look alike come from different tables or passages of the source.

Experiments:
mdx mice = assay: Wire hang test in mdx mice; format: in vivo; details: dantrolene 10 mg/kg/day with oligo AON23 10 mg/kg/week versus AON23 10 mg/kg/week alone, p=0.022
[1] = humans, long term administration; cited from earlier work
[2] = target: T1, cystine/glutamate antiporter SLC7A11 (xCT) (Homo sapiens, UniProt Q9UPY5); assay: Glutamate secretion with sulfasalazine inhibition of the transporter; format: cell-based; details: K562 cells; FIG. S7A-E
T1 construct: endogenous in cells; host or cells: K562 (probable)
T1 sequence (Q9UPY5 1-501): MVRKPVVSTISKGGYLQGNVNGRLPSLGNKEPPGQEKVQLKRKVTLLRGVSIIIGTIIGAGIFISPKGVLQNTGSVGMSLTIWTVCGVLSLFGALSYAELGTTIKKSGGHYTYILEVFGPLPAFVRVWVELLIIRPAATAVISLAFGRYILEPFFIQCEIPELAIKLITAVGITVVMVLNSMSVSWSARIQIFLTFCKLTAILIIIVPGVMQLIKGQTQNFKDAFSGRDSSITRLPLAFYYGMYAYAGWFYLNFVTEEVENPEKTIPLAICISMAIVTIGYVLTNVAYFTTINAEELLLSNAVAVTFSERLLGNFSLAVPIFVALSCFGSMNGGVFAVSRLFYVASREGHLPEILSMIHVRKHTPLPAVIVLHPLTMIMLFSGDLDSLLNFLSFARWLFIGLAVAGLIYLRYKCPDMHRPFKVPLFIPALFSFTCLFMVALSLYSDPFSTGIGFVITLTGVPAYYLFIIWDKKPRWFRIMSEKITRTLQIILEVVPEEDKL
T1 sequence (P08195 1-529 partner): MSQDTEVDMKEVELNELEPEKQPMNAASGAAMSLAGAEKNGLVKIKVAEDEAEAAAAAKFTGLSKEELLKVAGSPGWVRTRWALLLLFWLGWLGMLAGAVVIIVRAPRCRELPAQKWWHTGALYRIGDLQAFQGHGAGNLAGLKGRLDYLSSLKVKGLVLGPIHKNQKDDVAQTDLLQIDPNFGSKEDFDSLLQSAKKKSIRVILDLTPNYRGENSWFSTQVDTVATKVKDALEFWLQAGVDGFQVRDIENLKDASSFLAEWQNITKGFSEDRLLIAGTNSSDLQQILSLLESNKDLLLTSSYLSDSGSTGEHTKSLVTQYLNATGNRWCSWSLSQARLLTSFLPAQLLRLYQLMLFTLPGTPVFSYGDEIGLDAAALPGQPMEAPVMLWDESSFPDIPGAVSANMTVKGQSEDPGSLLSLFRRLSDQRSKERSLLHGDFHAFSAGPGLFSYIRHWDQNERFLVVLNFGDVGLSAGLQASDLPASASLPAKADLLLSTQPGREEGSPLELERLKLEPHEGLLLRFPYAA
Experimental: Glutamate levels were determined using a commercially available AMPLEX kit (Life Technologies). LUC7L2WT, LUC7L2Rescue (LUC7L2KO cells were a LUC7L2 cDNA was stably expressed), LUC7L2KO and ASO treated K562 or HAP1 cells were grown for 24 h in fresh culture media and counted. Cells were then washed with PBS, the media was replaced and the cells were incubated for another 3 h. Medias were then collected and centrifuged at 2,000 g for 3 min, and glutamate concentrations were determined from the supernatant.

K562 cells = assay: Maximal respiration with sulfasalazine inhibition of the transporter; format: cell-based, human; details: FIG. S7A-E
Experimental: 1.25×10^5 K562 cells were plated on a Seahorse plate in Seahorse XF DMEM media (Agilent) containing 25 mM glucose and 4 mM glutamine (ThermoFisher Scientific). Oxygen consumption and extracellular acidification rates were simultaneously recorded by a Seahorse XFe96 Analyzer (Agilent) using the mito stress test protocol, in which cells were sequentially perturbed by […] oligomycin, 1 μM CCCP and […] antimycin (Sigma). Data were analyzed using the Seahorse Wave Desktop Software (Agilent). Data were not corrected for carbonic acid derived from respiratory CO2. For seahorse in HeLa and HAP1 cells, 5×104 and 1×10^5 cells were plated in a 96-well seahorse plate the day before the experiment (respectively). Cells were trypsinized after the experiment and recounted and the data was normalized to cell number.

PFKM = target: T2, PFKM (Homo sapiens, UniProt P08237); details: PFKM / PFK inhibition, cited from earlier work
T2 sequence (P08237 2-780 limits assumed): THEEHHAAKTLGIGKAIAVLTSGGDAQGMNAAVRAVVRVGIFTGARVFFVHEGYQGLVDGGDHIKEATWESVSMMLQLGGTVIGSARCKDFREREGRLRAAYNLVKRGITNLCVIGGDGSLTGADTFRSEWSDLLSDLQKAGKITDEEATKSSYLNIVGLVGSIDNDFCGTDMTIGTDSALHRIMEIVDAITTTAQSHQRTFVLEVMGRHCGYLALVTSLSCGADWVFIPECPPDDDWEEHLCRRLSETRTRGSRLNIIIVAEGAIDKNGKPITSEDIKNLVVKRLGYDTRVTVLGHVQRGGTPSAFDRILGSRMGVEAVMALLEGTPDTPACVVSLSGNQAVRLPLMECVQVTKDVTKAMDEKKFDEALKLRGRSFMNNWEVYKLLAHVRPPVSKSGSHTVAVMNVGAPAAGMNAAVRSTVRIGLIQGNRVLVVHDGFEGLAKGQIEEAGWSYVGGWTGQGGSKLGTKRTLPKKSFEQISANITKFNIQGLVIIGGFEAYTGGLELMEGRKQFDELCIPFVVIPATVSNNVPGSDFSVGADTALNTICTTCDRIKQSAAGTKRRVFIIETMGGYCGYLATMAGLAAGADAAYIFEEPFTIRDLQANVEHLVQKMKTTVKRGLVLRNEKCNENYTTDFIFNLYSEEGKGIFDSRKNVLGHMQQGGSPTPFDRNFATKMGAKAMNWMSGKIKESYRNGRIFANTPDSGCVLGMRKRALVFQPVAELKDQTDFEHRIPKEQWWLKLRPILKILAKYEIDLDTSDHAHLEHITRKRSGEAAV

In the case of `O=C1CN(/N=C/c2ccc(-c3ccc([N+](=O)[O-])cc3)o2)C(O)=N1` [Dantrolene], the “functional benefit in wire hang test” value (mdx mice) is listed as “functional benefit” and the “dose shown to be safe” value [1] is listed as “up to 8 mg/kg/day”.

With `O=C(O)c1cc(/N=N/c2ccc(S(=O)(=O)Nc3ccccn3)cc2)ccc1O` [sulfasalazine (SAS), sulfasalazine] the glutamate secretion [2] was “prevented glutamate secretion” and the maximal respiration (K562 cells) was “promoted maximal respiration”.

In the case of tryptolinamide [tryptonilamide], the “shift of energy metabolism from glycolysis to OXPHOS” value (PFKM) is given as “glycolysis to OXPHOS shift” and the “shift of energy metabolism from glycolysis to OXPHOS” value (PFKM; listed as tryptolinamide) is given as “strong effect”.
